According to patent US11717508B2, “Compounds, compositions, and methods for inhibiting bacterial growth” (priority 2016, dated 2023):
Like-named read-outs stand apart in the source and are kept apart here.

Tested on: DosRST regulon
Format: cell-based
Conditions: for WT DMSO/WT HC102A Fold change / log2 Fold change: upregulated
[1] = Rv2626c, WT Mtb treated with HC102A compared to DMSO
[2] = Rv2627c, WT Mtb treated with HC102A compared to DMSO
[3] = Rv2628, WT Mtb treated with HC102A compared to DMSO
[4] = Rv2629, WT Mtb treated with HC102A compared to DMSO
[5] = Rv2630, WT Mtb treated with HC102A compared to DMSO
[6] = Rv2631, WT Mtb treated with HC102A compared to DMSO
[7] = Rv3083, WT Mtb treated with HC102A compared to DMSO
[8] = Rv3084 lipR, WT Mtb treated with HC102A compared to DMSO
[9] = Rv3085, WT Mtb treated with HC102A compared to DMSO
[10] = Rv3127, WT Mtb treated with HC102A compared to DMSO
[11] = Rv3130c, WT Mtb treated with HC102A compared to DMSO
[12] = Rv3131, WT Mtb treated with HC102A compared to DMSO
[13] = Rv3132c, WT Mtb treated with HC102A compared to DMSO
[14] = Rv3133c, WT Mtb treated with HC102A compared to DMSO
[15] = Rv3134c, WT Mtb treated with HC102A compared to DMSO
[16] = Rv3839, WT Mtb treated with HC102A compared to DMSO
[17] = WT Mtb treated with HC102A compared to DMSO
[18] = WT Mtb treated with HC102A, replicate 1
[19] = WT Mtb treated with HC102A, replicate 2

C[C@@H]1CC(C)(C)C[C@]2(C1)NC(=O)NC2=O (racemic) [HC102A, 7,7,9-trimethyl-1,3-diazaspiro[4.5]decane-2,4-dione]
log2 Fold change, gene MT2700 (Rv2625c, WT Mtb treated with HC102A compared to DMSO): −5.149
Counts per million (CPM) WT_HC102A1, gene MT2700 (Rv2625c, WT Mtb treated with HC102A, replicate 1): 146.1 CPM
Counts per million (CPM) WT_HC102A2, gene MT2700 (Rv2625c, WT Mtb treated with HC102A, replicate 2): 111.9 CPM
Fold change, gene MT2701 [1]: 0.04398
log2 Fold change, gene MT2701 [1]: −4.507
Counts per million (CPM) WT_HC102A1, gene MT2701 (Rv2626c, WT Mtb treated with HC102A, replicate 1): 447.5 CPM
Counts per million (CPM) WT_HC102A2, gene MT2701 (Rv2626c, WT Mtb treated with HC102A, replicate 2): 554.5 CPM
Fold change, gene MT2702 [2]: 0.01981
log2 Fold change, gene MT2702 [2]: −5.658
Counts per million (CPM) WT_HC102A1, gene MT2702 (Rv2627c, WT Mtb treated with HC102A, replicate 1): 101.3 CPM
Counts per million (CPM) WT_HC102A2, gene MT2702 (Rv2627c, WT Mtb treated with HC102A, replicate 2): 156.7 CPM
Fold change, gene MT2703 [3]: 0.03499
log2 Fold change, gene MT2703 [3]: −4.837
Counts per million (CPM) WT_HC102A1, gene MT2703 (Rv2628, WT Mtb treated with HC102A, replicate 1): 20.64 CPM
Counts per million (CPM) WT_HC102A2, gene MT2703 (Rv2628, WT Mtb treated with HC102A, replicate 2): 33.42 CPM
Fold change, gene MT2704 [4]: 0.09873
log2 Fold change, gene MT2704 [4]: −3.34
Counts per million (CPM) WT_HC102A1, gene MT2704 (Rv2629, WT Mtb treated with HC102A, replicate 1): 540.6 CPM
Counts per million (CPM) WT_HC102A2, gene MT2704 (Rv2629, WT Mtb treated with HC102A, replicate 2): 660.1 CPM
Fold change, gene MT2705 [5]: 0.0994
log2 Fold change, gene MT2705 [5]: −3.331
Counts per million (CPM) WT_HC102A1, gene MT2705 (Rv2630, WT Mtb treated with HC102A, replicate 1): 71.28 CPM
Counts per million (CPM) WT_HC102A2, gene MT2705 (Rv2630, WT Mtb treated with HC102A, replicate 2): 56.05 CPM
Fold change, gene MT2707 [6]: 0.1179
log2 Fold change, gene MT2707 [6]: −3.085
Counts per million (CPM) WT_HC102A1, gene MT2707 (Rv2631, WT Mtb treated with HC102A, replicate 1): 110.9 CPM
Counts per million (CPM) WT_HC102A2, gene MT2707 (Rv2631, WT Mtb treated with HC102A, replicate 2): 72.59 CPM
Fold change, gene MT3168 [7]: 0.2851
log2 Fold change, gene MT3168 [7]: −1.81
Counts per million (CPM) WT_HC102A1, gene MT3168 (Rv3083, WT Mtb treated with HC102A, replicate 1): 100.3 CPM
Counts per million (CPM) WT_HC102A2, gene MT3168 (Rv3083, WT Mtb treated with HC102A, replicate 2): 66.84 CPM
Fold change, gene MT3169 [8]: 0.2724
log2 Fold change, gene MT3169 [8]: −1.876
Counts per million (CPM) WT_HC102A1, gene MT3169 (Rv3084 lipR, WT Mtb treated with HC102A, replicate 1): 16.74 CPM
Counts per million (CPM) WT_HC102A2, gene MT3169 (Rv3084 lipR, WT Mtb treated with HC102A, replicate 2): 9.205 CPM
Fold change, gene MT3170 [9]: 0.3224
log2 Fold change, gene MT3170 [9]: −1.633
Counts per million (CPM) WT_HC102A1, gene MT3170 (Rv3085, WT Mtb treated with HC102A, replicate 1): 11.79 CPM
Counts per million (CPM) WT_HC102A2, gene MT3170 (Rv3085, WT Mtb treated with HC102A, replicate 2): 8.619 CPM
Fold change, gene MT3212 [10]: 0.0633
log2 Fold change, gene MT3212 [10]: −3.982
Counts per million (CPM) WT_HC102A1, gene MT3212 (Rv3127, WT Mtb treated with HC102A, replicate 1): 690.1 CPM
Counts per million (CPM) WT_HC102A2, gene MT3212 (Rv3127, WT Mtb treated with HC102A, replicate 2): 898.2 CPM
Fold change, gene MT3216 [11]: 0.05498
log2 Fold change, gene MT3216 [11]: −4.185
Counts per million (CPM) WT_HC102A1, gene MT3216 (Rv3130c, WT Mtb treated with HC102A, replicate 1): 1,395.93 CPM
Counts per million (CPM) WT_HC102A2, gene MT3216 (Rv3130c, WT Mtb treated with HC102A, replicate 2): 1,787.99 CPM
Fold change, gene MT3217 [12]: 0.03013
log2 Fold change, gene MT3217 [12]: −5.053
Counts per million (CPM) WT_HC102A1, gene MT3217 (Rv3131, WT Mtb treated with HC102A, replicate 1): 415.6 CPM
Counts per million (CPM) WT_HC102A2, gene MT3217 (Rv3131, WT Mtb treated with HC102A, replicate 2): 421.7 CPM
Fold change, gene MT3218 [13]: 0.0994
log2 Fold change, gene MT3218 [13]: −3.331
Counts per million (CPM) WT_HC102A1, gene MT3218 (Rv3132c, WT Mtb treated with HC102A, replicate 1): 439 CPM
Counts per million (CPM) WT_HC102A2, gene MT3218 (Rv3132c, WT Mtb treated with HC102A, replicate 2): 364.8 CPM
Fold change, gene MT3219 [14]: 0.07283
log2 Fold change, gene MT3219 [14]: −3.779
Counts per million (CPM) WT_HC102A1, gene MT3219 (Rv3133c, WT Mtb treated with HC102A, replicate 1): 233.8 CPM
Counts per million (CPM) WT_HC102A2, gene MT3219 (Rv3133c, WT Mtb treated with HC102A, replicate 2): 174 CPM
Fold change, gene MT3220 [15]: 0.04505
log2 Fold change, gene MT3220 [15]: −4.472
Counts per million (CPM) WT_HC102A1, gene MT3220 (Rv3134c, WT Mtb treated with HC102A, replicate 1): 264.6 CPM
Counts per million (CPM) WT_HC102A2, gene MT3220 (Rv3134c, WT Mtb treated with HC102A, replicate 2): 171.8 CPM
Fold change, gene MT3947 [16]: 0.2314
log2 Fold change, gene MT3947 [16]: −2.111
Counts per million (CPM) WT_HC102A1, gene MT3947 (Rv3839, WT Mtb treated with HC102A, replicate 1): 25.93 CPM
Counts per million (CPM) WT_HC102A2, gene MT3947 (Rv3839, WT Mtb treated with HC102A, replicate 2): 7.681 CPM
Fold change, gene MT0598 [17]: 0.2421
Fold change, gene MT0600 [17]: 0.1586
Fold change, gene MT1096 [17]: 0.3436
Fold change, gene MT1385 [17]: 0.3712
Fold change, gene MT1775 [17]: 0.2046
Fold change, gene MT1777 [17]: 0.1265
Fold change, gene MT2088 [17]: 0.0678
Fold change, gene MT2090 [17]: 0.1133
Fold change, gene MT3209 [17]: 0.4
Fold change, gene MT3210 [17]: 0.04949
log2 Fold change, gene MT0598 [17]: −2.046
log2 Fold change, gene MT0600 [17]: −2.656
log2 Fold change, gene MT1096 [17]: −1.541
log2 Fold change, gene MT1385 [17]: −1.43
log2 Fold change, gene MT1775 [17]: −2.289
log2 Fold change, gene MT1777 [17]: −2.983
log2 Fold change, gene MT2088 [17]: −3.883
log2 Fold change, gene MT2090 [17]: −3.141
log2 Fold change, gene MT3209 [17]: −1.322
log2 Fold change, gene MT3210 [17]: −4.337
Counts per million (CPM) WT_HC102A1, gene MT0598 [18]: 57.71 CPM
Counts per million (CPM) WT_HC102A1, gene MT0600 [18]: 129.6 CPM
Counts per million (CPM) WT_HC102A1, gene MT1096 [18]: 9.103 CPM
Counts per million (CPM) WT_HC102A1, gene MT1385 [18]: 56.65 CPM
Counts per million (CPM) WT_HC102A1, gene MT1775 [18]: 172.1 CPM
Counts per million (CPM) WT_HC102A1, gene MT1777 [18]: 11.46 CPM
Counts per million (CPM) WT_HC102A1, gene MT2088 [18]: 254.1 CPM
Counts per million (CPM) WT_HC102A1, gene MT2090 [18]: 3,874.46 CPM
Counts per million (CPM) WT_HC102A1, gene MT3209 [18]: 5.689 CPM
Counts per million (CPM) WT_HC102A1, gene MT3210 [18]: 0.5689 CPM
Counts per million (CPM) WT_HC102A2, gene MT0598 [19]: 66.55 CPM
Counts per million (CPM) WT_HC102A2, gene MT0600 [19]: 211.3 CPM
Counts per million (CPM) WT_HC102A2, gene MT1096 [19]: 3.811 CPM
Counts per million (CPM) WT_HC102A2, gene MT1385 [19]: 35.06 CPM
Counts per million (CPM) WT_HC102A2, gene MT1775 [19]: 61.8 CPM
Counts per million (CPM) WT_HC102A2, gene MT1777 [19]: 24.1 CPM
Counts per million (CPM) WT_HC102A2, gene MT2088 [19]: 225.6 CPM
Counts per million (CPM) WT_HC102A2, gene MT2090 [19]: 5,782.55 CPM
Counts per million (CPM) WT_HC102A2, gene MT3209 [19]: 5.394 CPM
Counts per million (CPM) WT_HC102A2, gene MT3210 [19]: 0.1173 CPM
Counts per million (CPM) WT_HC102A1 (gene MT3514 (Rv3406), replicate 1): 494.4 CPM
Counts per million (CPM) WT_HC102A2 (gene MT3514 (Rv3406), replicate 2): 168 CPM
WT DMSO/WT HC102A Fold change (gene MT3514 (Rv3406)): 6.242
log2 Fold change (gene MT3514 (Rv3406)): 2.642
Counts per million (CPM) WT_HC102A1 (gene MT3515 (Rv3407), replicate 1): 191.1 CPM
Counts per million (CPM) WT_HC102A2 (gene MT3515 (Rv3407), replicate 2): 103.1 CPM
WT DMSO/WT HC102A Fold change (gene MT3515 (Rv3407)): 2.831
log2 Fold change (gene MT3515 (Rv3407)): 1.501
